How the values were obtained:
E. coli MRO 10135 = test: MIC, Agar Dilution Method, resistant clinical isolate; format: cell-based
Procedure: (§1) The novel compounds were tested for the in vitro antibacterial activities by the Agar Dilution Method as specified in documents published by NCCLS, now CLSI, USA. (National Committee for Clinical Laboratory Standards (NCCLS). 2003. Approved standard M7-A6. NCCLS, Villanova, Pa.).
(§2) Tazo was also dissolved in same buffer to get a solution of, e.g., 1 mg/mL. Novel penam derivatives described herein were dissolved in water to get a solution of, e.g., 1 mg/mL.
(§3) The novel compounds and Tazo were also tested individually. The bacterial inoculum was prepared by picking 3 to 5 well-isolated bacterial colonies with the same morphological appearance from an 18-24 h old culture and adjusting the turbidity of the saline suspension to 0.5 McFarland Turbidity Standard equivalent to a bacterial population of 1.5×10^8 colony forming units (CFU) per mL of suspension. The suspension was diluted 1:10 in saline (i.e. 0.5 mL suspension+4.5 mL saline) to get a bacterial population of 1.5×10^7 CFU/mL as inoculum. […] The inoculated petridishes were incubated at 35° C. in an ambient atmosphere for 16-20 h.

A. baumani MRO 14512 = test: as above; format: cell-based
Procedure: as §1, §2, §3

A. baumani MRO 14515 = test: as above; format: cell-based
Procedure: as §1, §2, §3

A. baumani MRO 14514 = test: as above; format: cell-based
Procedure: as §1, §2, §3

[1] = system: strains resistant to Fluoroquinolones; details: Kriengkauykiat et al. 2005; cited from earlier work
[2] = system: K. pneumoniae ATCC 700603; test: MIC, Agar Dilution Method; format: cell-based; details: K. pneumoniae 700603, SHV-18
Procedure: as §1, §2, §3

K. pneumoniae MRO 11008 [3] = test: MIC, Agar Dilution Method; format: cell-based; details: ESBL producing K. pneumoniae strain; inhibitor 1 μg/mL
Procedure: as §1, §2, §3

Penicillinase enzyme = test: β-Lactamase assay (Centa substrate); format: biochemical; details: FIG. 1
Procedure: Representative novel compounds were subjected to β-lactamase assay to determine and compare their IC50 with that of Tazo as described elsewhere (Bebrone et. al, 2001, Antimicrob. Agents. Chemother. 45(6): 1868-1871; Jamieson et. al, 2003, Antimicrob. Agents. Chemother. 47(5): 1652-1657). Briefly enzyme inhibition assays with Tazo acid as the standard inhibitor for % inhibitions & IC50 value with optimized concentrations of Penicillinase enzyme & Centa β-lactamase substrate were performed.

[4] = Possibility of conversion of Example 1 to Tazo, LC-MS/MS of plasma; format: in vivo; details: Swiss mice, 8 mg/kg along with Piperacillin (32 mg/kg)
Procedure: Blood samples were collected at different time points. These samples were processed and analyzed by LC-MS/MS, which has the capability of simultaneously detecting even the lower concentration of Tazo (20 ng/mL) and the compound obtained from Example 1 (10 ng/mL).

E. coli MRO 10006 = test: In vivo efficacy, infected mice; details: Swiss albino mice infected with E. coli MRO 10006; Piperacillin:inhibitor 4:1; 7-day survival
Procedure: (§4) The efficacy studies were performed as described earlier (Kuck et al, 1989, Antimicrob. Agents. Chemother. 33(11): 1964-1969). Briefly, Swiss albino mice, 20+2 g, from in-house breeding facility were challenged by the intraperitoneal injection of bacterial suspensions in 0.5 mL of hog gastric mucin (10 to 100 50% lethal doses). […] All the untreated control animals died within 48 h of infection. In each experiment, in-house Tazo was used as an inhibitor control in four doses. Median (50%) effective dose (ED50) were determined by applying the Reed and Muench's method of the 7-day survival ratios.

K. pneumoniae MRO 11008 [5] = test: In vivo efficacy, infected mice
Procedure: as §4

[6] = system: ESBL producing E. coli strains; test: In vivo efficacy, infected mice
Procedure: as §4

E. coli MRO 10007 = test: In vivo efficacy, infected mice; details: Swiss albino mice infected with E. coli MRO 10007; Piperacillin:inhibitor 4:1; 7-day survival
Procedure: as §4

[7] = system: strains producing the TEM type ESBLs (TEM-10, TEM-12 and TEM-10 and -12); test: MIC, Agar Dilution Method, TEM panel; format: cell-based; details: TEM-10, TEM-12 and TEM-10 and -12 strains; inhibitor 1 μg/mL and 2 μg/mL
Procedure: as §1, §2, §3

[8] = Intravenous pharmacokinetics in mice; format: in vivo, Swiss mice
Text: Blood samples were collected at different time points. These samples were processed and analyzed by HPLC.

[9] = Minimum bactericidal studies, broth macrodilution; format: cell-based
Procedure: Minimum bactericidal studies were performed by broth macrodilution technique as described by NCCLS.

[10] = system: P. mirabilis BAA-663 (TEM-89); test: MIC, Agar Dilution Method, ESBL producing ATCC isolate; format: cell-based
Procedure: as §1, §2, §3

E. coli BAA-196 (TEM-10) = test: as above; format: cell-based; details: inhibitor 4 μg/mL
Procedure: as §1, §2, §3

E. coli BAA-199 (SHV-3) = test: as above; format: cell-based
Procedure: as §1, §2, §3

E. coli BAA-201 (TEM-3) = test: as above; format: cell-based
Procedure: as §1, §2, §3

E. coli BAA-202 (SHV-1) = test: as above; format: cell-based
Procedure: as §1, §2, §3

E. coli BAA-197 (TEM-12) = test: as above; format: cell-based; details: inhibitor 4 μg/mL
Procedure: as §1, §2, §3

E. coli BAA-200 (SHV-4) = test: as above; format: cell-based; details: for potentiation of Piperacillin compared to Tazo: SHV-4 ESBL producing strain
Procedure: as §1, §2, §3

E. coli BAA-198 (TEM-26) = test: as above; format: cell-based
Procedure: as §1, §2, §3

[11] = system: K. pneumoniae 51503 (TEM-10 & -12); test: as above; format: cell-based; details: inhibitor 4 μg/mL
Procedure: as §1, §2, §3

[12] = system: strains resistant to Ceftazidime, Ciprofloxacin, and Piperacillin/Tazo combination; test: MIC, Agar Dilution Method, resistant panel; format: cell-based
Procedure: as §1, §2, §3

## CC(C)(O/N=C(\C(=O)N[C@@H]1C(=O)N2C(C(=O)[O-])=C(C[n+]3ccccc3)CS[C@H]12)c1csc(N)n1)C(=O)O [Ceftazidime]
E. coli MRO 10135
  MIC (antibiotic alone): >64 µg/mL
A. baumani MRO 14512
  MIC (antibiotic alone): >64 µg/mL
A. baumani MRO 14515
  MIC (antibiotic alone): >64 µg/mL
A. baumani MRO 14514
  MIC (antibiotic alone): >64 µg/mL
[1]
  cross-resistance of strains resistant to Fluoroquinolones: 76%

## C[n+]1ccn(C[C@@]2(C)[C@H](C(=O)[O-])N3C(=O)C[C@H]3S2(=O)=O)n1 [Example 1, 1-{[(2S,3S,5R)-2-Carboxy-3-methyl-4,4,7-trioxo-4-thia-1-azabicyclo[3.2.0]hept-3-yl]methyl}-3-methyl-1H-1,2,3-triazol-3-ium]
E. coli MRO 10135; Pip + 4 μg/mL inhibitor
  MIC of Piperacillin in combination with 4 μg/mL inhibitor: 16 µg/mL
A. baumani MRO 14512; Pip + 4 μg/mL inhibitor
  MIC of Piperacillin in combination with 4 μg/mL inhibitor: 4 µg/mL
A. baumani MRO 14515; Pip + 4 μg/mL inhibitor
  MIC of Piperacillin in combination with 4 μg/mL inhibitor: 32 µg/mL
A. baumani MRO 14514; Pip + 4 μg/mL inhibitor
  MIC of Piperacillin in combination with 4 μg/mL inhibitor: 32 µg/mL
[2]; inhibitor 2 μg/mL
  MIC of Piperacillin with different concentrations of Tazo or compound of Example 1: 16 µg/mL
[2]; inhibitor 4 μg/mL
  MIC of Piperacillin with different concentrations of Tazo or compound of Example 1: 16 µg/mL
K. pneumoniae MRO 11008 [3]
  in vitro potentiation of Piperacillin: 16 fold
Penicillinase enzyme
  IC50 compared with Tazo: three-fold lower
[4]
  conversion to Tazo after intravenous administration (LC-MS/MS of plasma): did not get converted to Tazo
E. coli MRO 10006
  ED50 of Piperacillin in combination with inhibitor: 22.62 mg/kg b.w.
K. pneumoniae MRO 11008 [5]; Swiss albino mice infected with K. pneumoniae MRO 11008, Piperacillin:inhibitor 4:1, 7-day survival
  ED50 of Piperacillin in combination with inhibitor: 34.89 mg/kg b.w.
K. pneumoniae MRO 11008 [5]; mice, ESBL producing K. pneumoniae strain resistant in vitro to Piperacillin with 1 μg/mL Tazo
  increase of efficacy of Piperacillin: three-fold
[6]
  ED50 of Piperacillin in combination, compared to that in combination with Tazo: two-fold lower
E. coli MRO 10007
  ED50 of Piperacillin in combination with inhibitor: 24.88 mg/kg b.w.
[7]
  potentiation of Piperacillin compared to Tazo: 2-16 fold
[8]; Swiss, mouse, in vivo, iv, 8 mg/kg
  C0: 15200 ng/mL
[8]; Swiss, mouse, in vivo, iv, 8 mg/kg, read-out: AUC0-4 h
  AUC(0-t): 5370 ng·h/mL
[8]; Swiss, mouse, in vivo, iv, 8 mg/kg, read-out: AUC0-∝
  AUC: 5830 ng·h/mL
[8]; Swiss, mouse, in vivo, iv, 8 mg/kg, read-out: Elimination half-life (converted)
  half-life: 16.3 min
[8]; mice, intravenous, compared with Tazo
  systemic exposure: higher than that of Tazo
[9]
  Minimum bactericidal concentration study, Piperacillin in combination with inhibitor: bacteriostatic
[10]; inhibitor 1 μg/mL
  MIC of Piperacillin with different concentrations of Tazo or compound of Example 1: 16 µg/mL
[10]; inhibitor 2 μg/mL
  MIC of Piperacillin with different concentrations of Tazo or compound of Example 1: 8 µg/mL
[10]; inhibitor 4 μg/mL
  MIC of Piperacillin with different concentrations of Tazo or compound of Example 1: 8 µg/mL
E. coli BAA-196 (TEM-10)
  MIC of Piperacillin with different concentrations of Tazo or compound of Example 1: 4 µg/mL
E. coli BAA-199 (SHV-3); SHV-3 ESBL producing strain, inhibitor 1 μg/mL
  potentiation of Piperacillin compared to Tazo: > 16 fold
E. coli BAA-199 (SHV-3); SHV-3 ESBL producing strain, inhibitor 2 μg/mL
  potentiation of Piperacillin compared to Tazo: > 32 fold
E. coli BAA-199 (SHV-3); SHV-3 producing strain as printed (second mention), inhibitor 4 μg/mL
  potentiation of Piperacillin compared to Tazo (in words): comparable with Tazo
E. coli BAA-199 (SHV-3); SHV-3 producing strain, inhibitor 4 μg/mL
  potentiation of Piperacillin compared to Tazo: > 64 fold
E. coli BAA-201 (TEM-3); inhibitor 1 μg/mL
  MIC of Piperacillin with different concentrations of Tazo or compound of Example 1: 4 µg/mL
E. coli BAA-201 (TEM-3); inhibitor 2 μg/mL
  MIC of Piperacillin with different concentrations of Tazo or compound of Example 1: 2 µg/mL
E. coli BAA-201 (TEM-3); inhibitor 4 μg/mL
  MIC of Piperacillin with different concentrations of Tazo or compound of Example 1: 2 µg/mL
E. coli BAA-202 (SHV-1); inhibitor 1 μg/mL
  MIC of Piperacillin with different concentrations of Tazo or compound of Example 1: >128 µg/mL
E. coli BAA-202 (SHV-1); inhibitor 2 μg/mL
  MIC of Piperacillin with different concentrations of Tazo or compound of Example 1: >128 µg/mL
E. coli BAA-202 (SHV-1); inhibitor 4 μg/mL
  MIC of Piperacillin with different concentrations of Tazo or compound of Example 1: >128 µg/mL
E. coli BAA-197 (TEM-12)
  MIC of Piperacillin with different concentrations of Tazo or compound of Example 1: 4 µg/mL
E. coli BAA-200 (SHV-4); E. coli BAA-200, SHV-4, inhibitor 4 μg/mL
  MIC of Piperacillin with different concentrations of Tazo or compound of Example 1: 2 µg/mL
E. coli BAA-200 (SHV-4); inhibitor 1 μg/mL
  potentiation of Piperacillin compared to Tazo: > 16 fold
E. coli BAA-200 (SHV-4); inhibitor 2 μg/mL
  potentiation of Piperacillin compared to Tazo: > 32 fold
E. coli BAA-198 (TEM-26); inhibitor 1 μg/mL
  MIC of Piperacillin with different concentrations of Tazo or compound of Example 1: 4 µg/mL
E. coli BAA-198 (TEM-26); inhibitor 2 μg/mL
  MIC of Piperacillin with different concentrations of Tazo or compound of Example 1: 4 µg/mL
E. coli BAA-198 (TEM-26); inhibitor 4 μg/mL
  MIC of Piperacillin with different concentrations of Tazo or compound of Example 1: 2 µg/mL
[11]
  MIC of Piperacillin with different concentrations of Tazo or compound of Example 1: 8 µg/mL
[12]; inhibitor 4 μg/mL, strains resistant to Ceftazidime and Ciprofloxacin
  potentiated the antibacterial activity of Piperacillin compared to that of Tazo: 2-16 fold
[12]; strains resistant to Ceftazidime, Ciprofloxacin, and Piperacillin/Tazo combination
  susceptibility of resistant strains to Piperacillin in combination: susceptible

## CC[n+]1ccn(C[C@@]2(C)[C@H](C(=O)[O-])N3C(=O)C[C@H]3S2(=O)=O)n1 [Example 2, 1-{[(2S,3S,5R)-2-Carboxy-3-methyl-4,4,7-trioxo-4-thia-1-azabicyclo[3.2.0]hept-3-yl]methyl}-3-ethyl-1H-1,2,3-triazol-3-ium]
Penicillinase enzyme
  IC50 compared with Tazo: three-fold lower

From patent US20090093423A2, “NOVEL 2-SUBSTITUTED METHYL PENAM DERIVATIVES” (Orchid Chemicals and Pharmaceuticals Limited, priority 2006, published 2009)
